According to patent US8377984B2, “Substituted gamma lactams as therapeutic agents” (Allergan, Inc., priority 2008, dated 2013):
Blank lines part the entries; values can stand above or below the compound they belong to.

Columns and labels:
EP2 [1] = molecular target: T1, EP2 (Homo sapiens, UniProt P43116); assay: EP2 binding (Ki)
hDP = molecular target: T2, hDP (Homo sapiens, UniProt Q13258); assay: Other receptors, hDP; format: cell-based
T2 sequence (Q13258 1-359): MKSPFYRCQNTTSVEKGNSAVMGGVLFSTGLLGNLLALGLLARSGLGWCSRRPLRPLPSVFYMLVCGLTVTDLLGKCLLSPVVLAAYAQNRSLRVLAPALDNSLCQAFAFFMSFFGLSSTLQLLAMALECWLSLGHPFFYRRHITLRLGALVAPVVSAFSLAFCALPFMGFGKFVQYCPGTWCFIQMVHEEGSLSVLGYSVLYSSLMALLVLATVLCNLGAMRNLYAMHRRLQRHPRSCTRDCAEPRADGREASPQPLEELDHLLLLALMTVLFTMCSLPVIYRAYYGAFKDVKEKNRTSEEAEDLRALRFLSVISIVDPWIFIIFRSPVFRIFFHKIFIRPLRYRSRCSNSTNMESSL

hEP3A = molecular target: T3, hEP3A (Homo sapiens, UniProt P43115); assay: Other receptors, hEP3A; format: cell-based
T3 sequence (P43115 1-390): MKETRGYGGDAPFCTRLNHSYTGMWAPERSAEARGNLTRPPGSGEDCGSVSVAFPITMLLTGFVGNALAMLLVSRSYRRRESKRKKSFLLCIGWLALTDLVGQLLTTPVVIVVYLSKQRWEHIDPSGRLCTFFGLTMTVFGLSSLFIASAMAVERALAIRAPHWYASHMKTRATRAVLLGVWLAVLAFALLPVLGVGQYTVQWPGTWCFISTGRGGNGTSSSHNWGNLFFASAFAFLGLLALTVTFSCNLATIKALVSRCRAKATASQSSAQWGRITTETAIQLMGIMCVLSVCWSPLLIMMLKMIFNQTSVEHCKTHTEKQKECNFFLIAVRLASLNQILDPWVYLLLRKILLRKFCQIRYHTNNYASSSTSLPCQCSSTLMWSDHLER

EP2 [2] = molecular target: T1, EP2; assay: EP2 cAMP; format: cell-based
EP4 [3] = molecular target: T4, EP4 (Homo sapiens, UniProt P35408); assay: EP4 flipr; format: cell-based
EP2 [4] = molecular target: T1, EP2; assay: EP2 flipr; format: cell-based
normotensive dogs = assay: Ocular surface hyperemia (OSH) in normotensive dogs; format: in vivo; details: 0.003%
Protocol: In Vivo Data (S)-5-(3-(1-(4-hexylphenyl)-5-oxopyrrolidin-2-yl)propyl)thiophene-2-carboxylic acid 2-hydroxyethyl ester (3) was tested in normotensive dogs at 0.003%, dosing once daily for 5 days. The maximum intraocular pressure (IOP) decrease from baseline was 5.9 mmHg (36%) at 54 h; the maximum ocular surface hyperemia (OSH) score was 1.1 at 74 h. This compound was also tested in laser-induced hypertensive monkeys, using one single day dose. At 0.003%, the maximum IOP decrease from baseline was 17 mmHg (44%) at 6 h.
(S)-5-(3-(1-(4-hexylphenyl)-5-oxopyrrolidin-2-yl)propyl)thiophene-2-carboxylic acid (9) was tested in normotensive dogs at 0.003%, dosing once daily for 5 days. The maximum intraocular pressure (IOP) decrease from baseline was 4.7 mmHg (29%) at 6 h; the maximum ocular surface hyperemia (OSH) score was 1.9 at 76 h. This compound was also tested in laser-induced hypertensive monkeys, using one single day dose. At 0.003%, the maximum IOP decrease from baseline was 9 mmHg (23%) at 6 h.
(S)-5-(3-(1-(4-hexylphenyl)-5-oxopyrrolidin-2-yl)propyl)thiophene-2-carboxylic acid isopropyl ester was tested in normotensive dogs at 0.003%, dosing once daily for 4 days. The maximum intraocular pressure (IOP) decrease from baseline was 3.9 mmHg (24%) at 30 h; the maximum ocular surface hyperemia (OSH) score was 0.7 at 28 h. This compound was also tested in laser-induced hypertensive monkeys, using one single day dose. At 0.003%, the maximum IOP decrease from baseline was 12 mmHg (28%) at 6 h.

EP4 [5] = molecular target: T4, EP4; assay: EP4 binding (Ki)

T1 sequence (P43116 whole entry): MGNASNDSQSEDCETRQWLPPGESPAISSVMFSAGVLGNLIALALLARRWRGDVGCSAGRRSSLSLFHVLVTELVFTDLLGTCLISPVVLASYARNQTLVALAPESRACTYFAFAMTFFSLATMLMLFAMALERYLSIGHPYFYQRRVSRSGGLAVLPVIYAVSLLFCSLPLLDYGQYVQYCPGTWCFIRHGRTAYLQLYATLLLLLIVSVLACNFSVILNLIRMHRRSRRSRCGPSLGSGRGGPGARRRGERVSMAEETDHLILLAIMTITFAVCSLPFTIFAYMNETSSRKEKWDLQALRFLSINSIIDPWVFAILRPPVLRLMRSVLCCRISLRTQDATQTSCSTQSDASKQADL
T4 sequence (P35408 whole entry): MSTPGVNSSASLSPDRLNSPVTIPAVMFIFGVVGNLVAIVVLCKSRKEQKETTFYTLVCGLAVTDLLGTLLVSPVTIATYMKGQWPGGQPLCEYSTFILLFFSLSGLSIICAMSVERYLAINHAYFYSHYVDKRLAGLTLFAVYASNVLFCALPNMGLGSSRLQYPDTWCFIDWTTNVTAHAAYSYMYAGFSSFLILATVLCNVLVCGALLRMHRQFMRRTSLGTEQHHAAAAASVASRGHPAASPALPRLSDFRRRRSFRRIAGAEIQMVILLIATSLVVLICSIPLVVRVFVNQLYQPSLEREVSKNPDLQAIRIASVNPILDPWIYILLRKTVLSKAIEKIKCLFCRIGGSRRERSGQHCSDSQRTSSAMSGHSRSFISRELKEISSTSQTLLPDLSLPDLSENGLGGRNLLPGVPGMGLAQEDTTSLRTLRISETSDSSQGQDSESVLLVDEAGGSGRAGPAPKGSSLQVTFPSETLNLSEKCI

Ki (EP2 [1]): 3 nM
EC50 (hDP): 389 nM
EC50 (hEP3A): 1550 nM
EC50 (EP2 [2]): 0.5 nM
EC50 (EP4 [3]): 11300 nM
EC50 (EP2 [4]): 5 nM
maximum ocular surface hyperemia (OSH) score (normotensive dogs; once daily for 5 days, at 76 h): 1.9
Ki (EP4 [5]): 2610 nM
Structure (SMILES): CCCCCCc1ccc(N2C(=O)CC[C@@H]2CCCc2ccc(C(=O)O)s2)cc1 [Compound 9, (S)-5-(3-(1-(4-hexylphenyl)-5-oxopyrrolidin-2-yl)propyl)thiophene-2-carboxylic acid]

maximum ocular surface hyperemia (OSH) score (normotensive dogs; once daily for 4 days, at 28 h): 0.7
Structure (SMILES): CCCCCCc1ccc(N2C(=O)CC[C@@H]2CCCc2ccc(C(=O)OC(C)C)s2)cc1 [(S)-5-(3-(1-(4-hexylphenyl)-5-oxopyrrolidin-2-yl)propyl)thiophene-2-carboxylic acid isopropyl ester]

maximum ocular surface hyperemia (OSH) score (normotensive dogs; once daily for 5 days, at 74 h): 1.1
Structure (SMILES): CCCCCCc1ccc(N2C(=O)CC[C@@H]2CCCc2ccc(C(=O)OCCO)s2)cc1 [Compound 3, (S)-5-(3-(1-(4-hexylphenyl)-5-oxopyrrolidin-2-yl)propyl)thiophene-2-carboxylic acid 2-hydroxyethyl ester]
